Experiments:
[1] = test system: patients with treatment-resistant depression; test: Blinded, randomized placebo-controlled crossover trial; 21-point Hamilton Depression Rating Scale (HDRS/HRDS); type: in vivo, human
Text: (§1) Primary endpoint was the change on the 21-point Hamilton Depression Rating Scale (HRDS).
(§2) This study was designed as a randomized, placebo-controlled crossover pilot clinical trial. […] The order of the session was randomly assigned by a random number generator. Other than the gas mixture administered, both sessions were indistinguishable from each other in setting, setup, and monitoring.
Patients were recruited from an existing database of treatment-resistant depression patients administered by the Washington University Department of Psychiatry as well as from the “Volunteers for Health” patient pool within the Washington University School of Medicine. […] Patients were instructed not to suspend their standard of care treatment for major depression. Patients were required to maintain a stable medication regiment without changes for 4 weeks prior to initiation of the study and continue on the same dose throughout.
(§3) The gas mix was administered via a standard anesthesia facemask through tubing connected to an anesthesia machine. A small sample connector line was inserted into the facemask allowing the measurement of inhaled and exhaled gas concentrations. Total gas flow was between 4-8 L/min. Patients were monitored during and after the treatment according to American Society of Anesthesiologists standard which includes continuous 3-lead ECG, pulsoximetry, non-invasive blood pressure and end-tidal CO2 under the supervision of an attending-level anesthesiologists. After the one-hour treatment session, patients were transferred and monitored for 2 hours. A study team physician determined if the patients met criteria for discharge before patients were discharged.
(§4) Outcomes were assessed at six time points for each patient (three per session; two sessions): within each session at baseline, 2 hours, and 24 hours after treatment. Primary study endpoint was the change on the 21-point Hamilton Depression Rating Scale (HDRS). Secondary endpoints included a change on the Quick Inventory of Depressive Symptoms Self Report (QIDS-SR) scale. At baseline, the Brief Psychiatric Rating Scale (BPRS) was also administered. Psychiatric safety endpoints were assessed via standard scales for psychosis and the Columbia suicide scale. Other safety endpoints included cardiovascular, respiratory and central nervous system adverse events determined by hemodynamic and respiratory monitoring.
The primary outcome was analyzed with a mixed effects repeated measures linear model that included three interactions (treatment; time; randomization group) using restricted maximum likelihood estimation.
For the analysis of paired data, such as the levels of HRDS, we used the Wilcoxon signed-rank test. To compare the rates of treatment responses and remissions between the two treatments and using the paired data structure, an exact binomial test was used (and corresponding odds ratios calculated) as the number of discordant pairs was <20. Data are presented as mean±SD or 95% confidence intervals, or as median and interquartile range. Because this is the first in-human patient pilot study, no prior knowledge existed for adequate sample size determination. […] JMP Pro 11.1 and SAS 9.3 (SAS Institute, Cary, N.C.), as well as Prism 6.04 (GraphPad Software, Inc., La Jolla, Calif.) were used for the statistical analysis and graphing.

[2] = test system: patients with treatment-resistant depression; test: Same crossover trial; Quick Inventory of Depressive Symptoms Self Report (QIDS-SR) scale; type: in vivo, human; settings: Table 4
Procedure: as §1, §2, §3, §4

[3] = test system: patients with treatment-resistant depression; parameters: species or system human; settings: in vivo
Procedure: as §3
as §4, with “monitoring. Nitrous oxide-induced inactivation of vitamin B12 was determined by measurement of plasma total homocysteine before and after treatment.” for “monitoring.”

[4] = 24 hours after treatment, HRDS levels

## [N-]=[N+]=O [nitrous oxide]
[1]; [4]
  Change in Level of Depression Severity: Better, 1 level (patients): 7/20
  Change in Level of Depression Severity: Better, 1 level (percent): (35%)
  Change in Level of Depression Severity: Better, 2 levels (patients): 3/20
  Change in Level of Depression Severity: Better, 2 levels (percent): (15%)
  Change in Level of Depression Severity: Better, 3 levels (patients): 3/20
  Change in Level of Depression Severity: Better, 3 levels (percent): (15%)
  Change in Level of Depression Severity: Better, 4 levels (patients): 1/20
  Change in Level of Depression Severity: Better, 4 levels (percent): (5%)
  Change in Level of Depression Severity: Neutral, 0 (patients): 6/20
  Change in Level of Depression Severity: Neutral, 0 (percent): (30%)
  Change in Level of Depression Severity: Worse, 1 level (patients): 0
[1]; 24 hours after treatment, full cohort (20 patients), 50% nitrous oxide/50% oxygen for 1 hour, compared to baseline and placebo
  mean change in HDRS score: −5.5 points
[1]; 24 hours, 20 patients
  full remission rate (HRDS <7 points): 15%
  treatment response rate (reduction >50% on the HRDS): 20%
[1]; 24 hours, first treatment session only (10 patients who received nitrous oxide first)
  mean reduction of HRDS: −8.6 points
[1]; 24 hours, out of twenty patients, five severity levels
  patients with at least a 2-level improvement of depression severity on the HRDS: 7 patients
[1]; 24 hours, twenty patients
  patients with at least a 2-level improvement of depression severity on the HRDS, percent: 35%
[1]; after a single, one-hour treatment with 50% nitrous oxide
  duration of antidepressant effects: at least 24 hours
[1]; full cohort
  mean reduction in depressive symptoms on HRDS: 5.5 points
[1]; ten patients who received the nitrous oxide treatment first
  mean reduction in depressive symptoms on HRDS: 8.6 points
[2]
  response on the QIDS scale: change 0 (percent): 50%
  response on the QIDS scale: change of 1 level, first arrow (P00003, presumably worse) (percent): 10%
  response on the QIDS scale: change of 1 level, second arrow (P00004, presumably better) (percent): 15%
  response on the QIDS scale: change of 2 levels, second arrow (P00004, presumably better) (percent): 25%
[3]; human, 1 h
  Adverse Event: Anxiety: 2
  Adverse Event: Anxiety (percent): (10%)
  Adverse Event: Claustrophobia: 1 no.
  Adverse Event: Claustrophobia (percent): (5%)
  Adverse Event: Dizziness/Lightheadedness: 1 no.
  Adverse Event: Dizziness/Lightheadedness (percent): (5%)
  Adverse Event: Headache: 2 no.
  Adverse Event: Headache (percent): (10%)
  Adverse Event: Hypercapnia: 0
  Adverse Event: Hyperventilation: 1 no.
  Adverse Event: Hyperventilation (percent): (5%)
  Adverse Event: Nausea and vomiting: 3 no.
  Adverse Event: Nausea and vomiting (percent): (15%)
  Adverse Event: Numbness/Paresthesia: 2
  Adverse Event: Numbness/Paresthesia (percent): (10%)
  Adverse Event: Panic Attack: 1
  Adverse Event: Panic Attack (percent): (5%)
  Adverse Event: Regurgitation: 1 no.
  Adverse Event: Regurgitation (percent): (5%)
[3]
  course of adverse events: temporary and resolved shortly after completion
  patients in whom the treatment had to be interrupted or discontinued due to adverse events: five
  patients who completed the full 60-minute treatment: Fifteen
  psychotomimetic side effects (delusion, hallucination): appeared to be devoid of psychotomimetic side effects
